Source: publication PMC12131194, “Rational design, synthesis, and evaluation of novel polypharmacological compounds targeting NaV1.5, KV1.5, and K2P channels for atrial fibrillation” (The Journal of Biological Chemistry, 2025)

Target: human TASK-1 (Homo sapiens, UniProt O14649)
Experiment: Whole-cell patch-clamp in transfected HEK-293 cells, TASK-1
Assay type: cell-based
Set-up: human TASK-1 (KCNK3, NM_002246); expressed in transfected cells
Details: HEK293, +40 mV
Description: The human embryonic kidney 293 (HEK-293) cell line was obtained from the American Type Culture Collection. HEK-293 cells were cultured in Dulbecco’s modified Eagle’s medium (DMEM-F12, Invitrogen Life Technologies) supplemented with 5% (v/v) fetal bovine serum (FBS) (Thermo Fisher Scientific) and 1% antibiotics (penicillin 100 U/ml y streptomycin 100 μg/ml) (Gibco, Thermo Fisher). The cells were maintained at 37 °C and 5% CO2 atmosphere.
For the electrophysiological experiments, HEK-293 cells were transiently transfected with cDNA encoding human NaV1.5 (plasmid 145,374, Addgene), KV1.5 (NM_002234), and TASK-1 (NM_002246). […] The cells were incubated for 4 h in transfection medium OptiMEM (Invitrogen). […]
For Nav1.5, the effect of 6f at both concentrations was tested using a repetitive single test voltage pulse at −10 mV (during 20 ms) from a holding potential of −80 mV, with intervals of 5s between pulses. For Kv1.5 and TASK-1, ramp voltage protocols were applied with pulse intervals of 20 s, and the currents were analyzed at +40 mV. […]
After recording currents with stable amplitudes, the cells were treated with 6f and applied from the bath solution. Currents were continuously recorded during repetitive pulses until a stable effect was achieved. […] The inhibition percentage was calculated as follows: Inℎibition (%) = 100 ∗ (Icontrol − Idrug)/Icontrol.

Chain of human TASK-1 (O14649 whole entry): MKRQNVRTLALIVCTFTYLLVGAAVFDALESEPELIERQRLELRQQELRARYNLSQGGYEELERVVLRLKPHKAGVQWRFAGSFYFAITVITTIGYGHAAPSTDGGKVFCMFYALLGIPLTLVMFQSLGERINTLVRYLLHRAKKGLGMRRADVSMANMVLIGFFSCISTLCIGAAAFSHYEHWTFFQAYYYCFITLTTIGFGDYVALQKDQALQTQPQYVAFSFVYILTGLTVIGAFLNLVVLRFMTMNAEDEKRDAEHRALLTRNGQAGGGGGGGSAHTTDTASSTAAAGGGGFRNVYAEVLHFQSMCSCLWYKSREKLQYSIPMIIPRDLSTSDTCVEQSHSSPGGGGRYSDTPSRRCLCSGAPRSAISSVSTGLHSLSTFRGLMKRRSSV

**Q.** Which results are given for CCCCN(CCCC)CC(=O)Nc1ccc(OC)cc1OC [Compound 6f, 2-(dibutylamine)-N-(2,4-dimethoxiphenyl)acetamide]?
**A.** inhibition at 10 µM (10 μM): 70%; inhibition at 100 µM (100 μM): 70%
